Experimental data as given in ChEMBL document CHEMBL6127091, “Design, synthesis, and evaluation of chalcone derivatives as xanthine oxidase inhibitors” (Eur J Med Chem, 2024).
Calls of active or inactive are those of the source. The rule behind the calls is not given here.

Legend:
[1] = molecular target: Xanthine dehydrogenase/oxidase (Bos taurus, UniProt P80457); experiment: Inhibition of bovine milk xanthine oxidase using xanthine as substrate preincubated for 30 mins followed by substrate addition by absorbance based analysis
Chain of Xanthine dehydrogenase/oxidase (Bos taurus, UniProt P80457) (P80457 whole entry): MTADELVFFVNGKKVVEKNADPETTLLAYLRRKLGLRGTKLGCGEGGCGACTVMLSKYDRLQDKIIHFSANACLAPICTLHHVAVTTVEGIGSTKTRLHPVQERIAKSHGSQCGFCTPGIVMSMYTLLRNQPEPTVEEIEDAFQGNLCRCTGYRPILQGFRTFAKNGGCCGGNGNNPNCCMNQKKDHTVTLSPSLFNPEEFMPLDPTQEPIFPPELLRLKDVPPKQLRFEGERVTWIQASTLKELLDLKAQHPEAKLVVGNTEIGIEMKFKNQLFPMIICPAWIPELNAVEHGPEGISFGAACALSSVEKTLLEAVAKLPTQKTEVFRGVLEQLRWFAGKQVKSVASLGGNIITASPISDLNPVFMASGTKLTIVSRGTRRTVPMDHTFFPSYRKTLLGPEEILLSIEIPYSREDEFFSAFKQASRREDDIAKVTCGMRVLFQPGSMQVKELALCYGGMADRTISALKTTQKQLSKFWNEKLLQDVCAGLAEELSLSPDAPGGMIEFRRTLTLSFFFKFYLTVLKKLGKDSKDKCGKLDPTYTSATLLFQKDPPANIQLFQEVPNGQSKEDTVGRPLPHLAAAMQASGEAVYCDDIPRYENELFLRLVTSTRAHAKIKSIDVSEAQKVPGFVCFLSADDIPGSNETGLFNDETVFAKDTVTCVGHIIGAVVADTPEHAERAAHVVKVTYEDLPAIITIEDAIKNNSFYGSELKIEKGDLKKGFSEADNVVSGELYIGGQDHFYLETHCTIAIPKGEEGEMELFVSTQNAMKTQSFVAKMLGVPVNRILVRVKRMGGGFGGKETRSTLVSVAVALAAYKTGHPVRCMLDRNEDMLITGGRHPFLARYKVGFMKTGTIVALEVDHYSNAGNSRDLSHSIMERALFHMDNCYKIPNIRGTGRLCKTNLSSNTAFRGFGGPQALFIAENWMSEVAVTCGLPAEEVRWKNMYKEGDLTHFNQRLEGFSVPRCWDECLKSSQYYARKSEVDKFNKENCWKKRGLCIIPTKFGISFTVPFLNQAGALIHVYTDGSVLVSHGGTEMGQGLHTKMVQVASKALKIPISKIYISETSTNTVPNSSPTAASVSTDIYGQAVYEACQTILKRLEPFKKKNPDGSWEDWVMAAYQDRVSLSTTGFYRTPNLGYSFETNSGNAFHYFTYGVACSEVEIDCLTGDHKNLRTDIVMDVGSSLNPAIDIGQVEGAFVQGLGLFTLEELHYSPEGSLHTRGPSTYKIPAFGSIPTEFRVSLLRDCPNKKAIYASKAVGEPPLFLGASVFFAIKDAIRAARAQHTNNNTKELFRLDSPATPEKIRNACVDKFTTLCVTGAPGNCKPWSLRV

[2] = Effect on serum AST/ALT ratio in PO-induced hyperuricemia Sprague-Dawley rat model at 10 mg/kg, po measure upto 8 hrs; format: toxicity, organism-based; conditions: in vivo
[3] = tested on: Rattus norvegicus; experiment: Anti-hyperuricemia effect in PO-induced hyperuricemia Sprague-Dawley rat model assessed as decrease in serum uric acid level at 10 mg/kg, po measured after 2 hrs; format: functional, organism-based
[4] = Effect on serum creatinine level in PO-induced hyperuricemia Sprague-Dawley rat model at 10 mg/kg, po measure upto 8 hrs; format: toxicity, organism-based; conditions: in vivo
[5] = molecular target: T1, Xanthine dehydrogenase/oxidase (Homo sapiens, UniProt P47989); experiment: Inhibition of xanthine oxidase (unknown origin) using xanthine as substrate preincubated for 20 mins followed by substrate addition measured for 5 mins by absorbance based analysis
T1 sequence (P47989 whole entry): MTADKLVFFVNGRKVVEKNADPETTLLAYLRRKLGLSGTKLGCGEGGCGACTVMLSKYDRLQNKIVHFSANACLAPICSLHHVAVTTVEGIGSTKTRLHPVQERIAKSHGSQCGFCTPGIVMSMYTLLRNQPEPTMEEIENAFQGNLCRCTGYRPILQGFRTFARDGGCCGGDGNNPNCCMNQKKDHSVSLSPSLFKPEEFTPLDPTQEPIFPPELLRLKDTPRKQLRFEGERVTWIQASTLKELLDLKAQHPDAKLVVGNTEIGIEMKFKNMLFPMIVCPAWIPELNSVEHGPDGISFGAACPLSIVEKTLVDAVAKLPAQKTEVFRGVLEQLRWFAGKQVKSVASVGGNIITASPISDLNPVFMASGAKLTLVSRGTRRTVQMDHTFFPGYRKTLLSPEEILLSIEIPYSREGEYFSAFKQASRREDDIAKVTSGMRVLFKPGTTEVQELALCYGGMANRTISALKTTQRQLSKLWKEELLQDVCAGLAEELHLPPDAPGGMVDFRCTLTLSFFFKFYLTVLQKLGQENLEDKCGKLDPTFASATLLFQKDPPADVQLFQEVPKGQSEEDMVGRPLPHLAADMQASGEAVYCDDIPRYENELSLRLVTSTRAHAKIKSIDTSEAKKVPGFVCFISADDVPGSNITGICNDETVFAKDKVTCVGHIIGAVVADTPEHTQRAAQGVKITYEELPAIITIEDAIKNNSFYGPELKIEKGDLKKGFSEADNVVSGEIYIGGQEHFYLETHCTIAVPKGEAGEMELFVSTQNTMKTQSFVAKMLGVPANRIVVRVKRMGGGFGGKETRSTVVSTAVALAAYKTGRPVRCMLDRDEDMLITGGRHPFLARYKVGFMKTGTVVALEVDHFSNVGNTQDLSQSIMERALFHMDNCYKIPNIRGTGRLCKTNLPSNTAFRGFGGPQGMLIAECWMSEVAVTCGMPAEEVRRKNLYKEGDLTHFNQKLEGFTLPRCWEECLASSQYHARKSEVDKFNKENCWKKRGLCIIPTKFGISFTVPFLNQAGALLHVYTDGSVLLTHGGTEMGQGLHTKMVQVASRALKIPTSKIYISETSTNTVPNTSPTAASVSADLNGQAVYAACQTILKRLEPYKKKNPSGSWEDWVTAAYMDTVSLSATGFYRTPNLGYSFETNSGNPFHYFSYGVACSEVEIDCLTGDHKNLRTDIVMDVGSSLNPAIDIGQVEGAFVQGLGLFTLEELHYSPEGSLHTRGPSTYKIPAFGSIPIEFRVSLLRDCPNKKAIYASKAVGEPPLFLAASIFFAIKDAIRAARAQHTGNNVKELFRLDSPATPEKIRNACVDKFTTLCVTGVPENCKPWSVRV

[6] = molecular target: T1, Xanthine dehydrogenase/oxidase; experiment: Inhibition of xanthine oxidase (unknown origin)
[7] = molecular target: T1, Xanthine dehydrogenase/oxidase; experiment: Mixed-type inhibition of xanthine oxidase (unknown origin) using xanthine as substrate by absorbance based analysis
[8] = Effect on serum creatinine level in PO-induced hyperuricemia Sprague-Dawley rat model at 10 to 40 mg/kg, po measure upto 8 hrs; format: toxicity, organism-based; conditions: in vivo, dose 10-40 mg/kg
[9] = Effect on BUN level in PO-induced hyperuricemia Sprague-Dawley rat model at 10 to 40 mg/kg, po measure upto 8 hrs; format: toxicity, organism-based; conditions: in vivo, dose 10-40 mg/kg
[10] = tested on: Rattus norvegicus; experiment: Anti-hyperuricemia effect in PO-induced hyperuricemia Sprague-Dawley rat model assessed as decrease in serum uric acid level at 10 to 40 mg/kg, po measured after 2 hrs; format: functional, organism-based; conditions: dose 10-40 mg/kg
[11] = tested on: AML12; experiment: Cytotoxicity in mouse AML12 cells at 1 to 20 uM incubated for 24 hrs by MTT assay; format: toxicity, cell-based; conditions: aml12, 24 h, dose 1-20 µM
[12] = molecular target: T1, Xanthine dehydrogenase/oxidase; experiment: Reversible inhibition of xanthine oxidase (unknown origin) using xanthine as substrate by absorbance based analysis
[13] = tested on: Rattus norvegicus; experiment: Anti-hyperuricemia effect in PO-induced hyperuricemia Sprague-Dawley rat model assessed as decrease in serum uric acid level at 10 mg/kg, po measured for 1 to 6 hrs; format: functional, organism-based; conditions: time 1-6 hrs
[14] = Effect on serum AST/ALT ratio in PO-induced hyperuricemia Sprague-Dawley rat model at 10 to 40 mg/kg, po measure upto 8 hrs; format: toxicity, organism-based; conditions: in vivo, dose 10-40 mg/kg
[15] = Cytotoxicity in mouse AML12 cells assessed as cell viability at 20 uM incubated for 24 hrs by MTT assay relative to control; format: toxicity, cell-based; conditions: read-out: Activity
[16] = Cytotoxicity in mouse AML12 cells assessed as cell viability at 1 to 10 uM incubated for 24 hrs by MTT assay relative to control; format: toxicity, cell-based; conditions: dose 1-10 µM, read-out: Activity

IC50 [1] | Compound | further results
109 nM | CS(=O)(=O)c1ccc(C(=O)/C=C/c2cc(C(=O)O)ccc2O)cc1 | –
297 nM | O=C(O)c1ccc(O)c(/C=C/C(=O)c2cccnc2)c1 | –
155 nM | O=C(O)c1ccc(O)c(/C=C/C(=O)c2ccc3c(c2)CCO3)c1 | –
248 nM | CC(=O)c1ccc(C(=O)/C=C/c2cc(C(=O)O)ccc2O)cc1 | –
266 nM | COc1ccc(C(=O)/C=C/c2cc(C(=O)O)ccc2O)cc1 | –
301 nM | O=C(O)c1ccc(O)c(/C=C/C(=O)c2cc[nH]c2)c1 | –
– | Oc1ncnc2[nH]ncc12 [ALLOPURINOL] | Activity [2]: Non-Toxic; Activity [3]: Active; Activity [4]: Toxic
178 nM | O=C(O)c1ccc(O)c(/C=C/C(=O)c2ccc3c(c2)OCO3)c1 | –
176 nM | Cc1ccc(C(=O)/C=C/c2cc(C(=O)O)ccc2O)cc1 | –
117 nM | CN(C)c1ccc(C(=O)/C=C/c2cc(C(=O)O)ccc2O)cc1 | –
542 nM | CCCOc1ccc(C(=O)/C=C/c2cc(C(=O)O)ccc2O)cc1 | –
294 nM | CCCCOc1ccc(C(=O)/C=C/c2cc(C(=O)O)ccc2O)cc1 | –
307 nM | O=C(O)c1ccc(O)c(/C=C/C(=O)c2ccccn2)c1 | –
– | COc1ccc(C(=O)/C=C/c2ccc(O)cc2)cc1 | IC50 [5]: 4500 nM
309 nM | O=C(O)c1ccc(O)c(/C=C/C(=O)c2ccncc2)c1 | –
213 nM | O=C(O)c1ccc(O)c(/C=C/C(=O)c2ccc3ccccc3c2)c1 | –
– | O=C(O)c1ccc(/C=C/C(=O)c2ccc(O)cc2)cc1 | IC50 [6]: 300 nM
404 nM | C=CCOc1ccc(C(=O)/C=C/c2cc(C(=O)O)ccc2O)cc1 | –
206 nM | O=C(O)c1ccc(O)c(/C=C/C(=O)c2ccccc2)c1 | –
196 nM | O=C(O)c1ccc(O)c(/C=C/C(=O)c2ccc3ncccc3c2)c1 | –

IC50 [1] | Compound | further results
211 nM | CCCc1ccc(C(=O)/C=C/c2cc(C(=O)O)ccc2O)cc1 | –
102 nM | CNc1ccc(C(=O)/C=C/c2cc(C(=O)O)ccc2O)cc1 | inhibition (INH) [7]: Active; Activity [8]: Non-Toxic; Activity [9]: Non-Toxic; Activity [10]: Active; Activity [11]: Non-Toxic; inhibition (INH) [12]: Active; Activity [13]: Active; Activity [14]: Non-Toxic
127 nM | C#Cc1ccc(C(=O)/C=C/c2cc(C(=O)O)ccc2O)cc1 | –
274 nM | C#CCOc1ccc(C(=O)/C=C/c2cc(C(=O)O)ccc2O)cc1 | –
306 nM | CC(C)COc1ccc(C(=O)/C=C/c2cc(C(=O)O)ccc2O)cc1 | –
368 nM | CC1(C)CCSc2ccc(C(=O)/C=C/c3cc(C(=O)O)ccc3O)cc21 | –
139 nM | O=C(O)c1ccc(O)c(/C=C/C(=O)c2ccc3[nH]ccc3c2)c1 | –
215 nM | O=C(O)c1ccc(O)c(/C=C/C(=O)c2ccsc2)c1 | –
484 nM | CCOc1ccc(C(=O)/C=C/c2cc(C(=O)O)ccc2O)cc1 | –
555 nM | CC(C)(C)c1ccc(C(=O)/C=C/c2cc(C(=O)O)ccc2O)cc1 | –
– | COc1ccc(C(=O)/C=C/c2ccc(C(=O)O)cc2)cc1 | IC50 [6]: 100 nM
222 nM | O=C(O)c1ccc(O)c(/C=C/C(=O)c2cccc3ccccc23)c1 | –
185 nM | O=C(O)c1ccc(O)c(/C=C/C(=O)c2ccc3c(c2)OCCO3)c1 | –
64 nM | O=C(O)c1ccc(O)c(/C=C/C(=O)c2ccc3c(c2)CCN3)c1 | inhibition (INH) [7]: Active; Activity [11]: Non-Toxic; inhibition (INH) [12]: Active
84 nM | CCc1ccc(C(=O)/C=C/c2cc(C(=O)O)ccc2O)cc1 | inhibition (INH) [7]: Active; viability at 24 h, 20 µM [15]: 82.1%; inhibition (INH) [12]: Active; viability at 24 h, up to 10 µM [16]: > 90%
– | O=C(/C=C/c1ccc(O)cc1)c1ccc(O)c(O)c1 | IC50 [5]: 5600 nM
559 nM | O=C(O)c1ccc(O)c(/C=C/C(=O)c2ccc3c(c2)CCC3)c1 | –
193 nM | CSc1ccc(C(=O)/C=C/c2cc(C(=O)O)ccc2O)cc1 | –
311 nM | C[S+]([O-])c1ccc(C(=O)/C=C/c2cc(C(=O)O)ccc2O)cc1 (configuration not stated) | –
226 nM | O=C(O)c1ccc(O)c(/C=C/C(=O)c2nccs2)c1 | –
